Test results: the supplement of paper PMC10307832

Columns and labels:
Test in all cases: relative viability (nuclei count vs DMSO), 5 days (fraction); higher = more cells survive
Bromopyruvate + OSI-027 = compound: C(C(=O)C(=O)O)Br [Bromopyruvate] + COc1cccc2cc(-c3nc([C@H]4CC[C@H](C(=O)O)CC4)n4ncnc(N)c34)[nH]c12 [OSI-027] (partner 0.5 µM)
Procedure, shortened: (§1)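 Dosing by pin tool came one day after lung cancer cell lines were seeded in 1536-well plates, using either one drug or a fixed anchor-drug dose plus five library-drug doses (not always all listed) in √10 steps. After 5 days, nuclei were counted on 4× images. Relative viability is treated-well nuclei count divided by vehicle-well nuclei count, and values are medians of duplicate plates.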

[1] = compound: C(C(=O)C(=O)O)Br [Bromopyruvate] + Nc1ncn([C@H]2C[C@H](O)[C@@H](CO)O2)c(=O)n1 [Decitabine] (partner 2 µM)
Procedure, shortened: as §1

Bicalutamide + OSI-027 = compound: CC(O)(CS(=O)(=O)c1ccc(F)cc1)C(=O)Nc1ccc(C#N)c(C(F)(F)F)c1 [Bicalutamide] + COc1cccc2cc(-c3nc([C@H]4CC[C@H](C(=O)O)CC4)n4ncnc(N)c34)[nH]c12 [OSI-027] (partner 0.5 µM)
Procedure, shortened: as §1

[2] = compound: C(C(=O)C(=O)O)Br [Bromopyruvate] + C[C@@H](Oc1cc(-c2cnn(C3CCNCC3)c2)cnc1N)c1c(Cl)ccc(F)c1Cl [Crizotinib] (partner 1 µM)
Procedure, shortened: as §1

| Cell Line | relative viability (Bromopyruvate + OSI-027; first compound 1 µM) | relative viability (Bromopyruvate + OSI-027; first compound 3.162 µM) | relative viability (Bromopyruvate + OSI-027; first compound 10 µM) | relative viability (Bromopyruvate + OSI-027; first compound 31.62 µM) | relative viability (Bromopyruvate + OSI-027; first compound 100 µM) | relative viability ([1]; first compound 1 µM) | relative viability ([1]; first compound 3.162 µM) | relative viability ([1]; first compound 10 µM) | relative viability ([1]; first compound 31.62 µM) | relative viability ([1]; first compound 100 µM) | relative viability (Bicalutamide + OSI-027; first compound 0.08 µM) | relative viability (Bicalutamide + OSI-027; first compound 0.253 µM) | relative viability (Bicalutamide + OSI-027; first compound 0.8 µM) | relative viability (Bicalutamide + OSI-027; first compound 2.53 µM) | relative viability ([2]; first compound 1 µM) | relative viability ([2]; first compound 3.162 µM) | relative viability ([2]; first compound 10 µM) | relative viability ([2]; first compound 31.62 µM) | relative viability ([2]; first compound 100 µM) |
| --- | --- | --- | --- | --- | --- | --- | --- | --- | --- | --- | --- | --- | --- | --- | --- | --- | --- | --- | --- |
| NCI-H1793 | 0.329 | 0.285 | 0.249 | 0.282 | 0.381 | 0.535 | 0.472 | 0.697 | 0.393 | 0.516 | 0.278 | 0.238 | 0.302 | 0.269 |  |  |  |  |  |
| NCI-H2085 | 0.794 | 0.931 | 0.798 | 0.726 | 0.797 | 0.626 | 0.557 | 0.529 | 0.593 | 0.526 | 0.832 | 0.642 | 0.788 | 0.628 | 0.823 | 0.984 | 0.874 | 0.778 | 0.797 |
| COR-L 105 | 0.563 | 0.701 | 0.712 | 0.671 | 0.639 | 0.59 | 0.674 | 0.75 | 0.706 | 0.525 | 0.644 | 0.555 | 0.614 | 0.572 | 0.716 | 1.09 | 0.739 | 0.583 | 0.439 |
| NCI-H2228 | 0.539 | 0.554 | 0.755 | 0.518 | 0.551 |  |  |  |  |  | 0.517 | 0.756 | 0.811 | 0.603 | 0.44 | 0.641 | 0.492 | 0.404 | 0.617 |
| NCI-H522 | 0.74 | 0.715 | 0.684 | 0.718 | 0.706 | 0.604 | 0.705 | 0.619 | 0.699 | 0.603 | 0.726 | 0.685 | 0.775 | 0.641 |  |  |  |  |  |
| NCI-H1299 |  |  |  |  |  |  |  |  |  |  |  |  |  |  | 0.933 | 0.994 | 0.995 | 0.945 | 0.957 |
| NCI-H1648 | 0.263 | 0.263 | 0.251 | 0.25 | 0.259 | 0.465 | 0.572 | 0.454 | 0.511 | 0.491 |  | 0.299 | 0.29 | 0.225 |  |  |  |  |  |
| NCI-H2342 | 0.552 | 0.603 | 0.542 | 0.545 | 0.497 | 0.746 | 0.682 | 0.676 | 0.695 | 0.629 | 0.629 | 0.593 | 0.63 | 0.551 |  |  |  |  |  |
| SW 900 | 0.589 | 0.543 | 0.558 | 0.562 | 0.526 | 0.451 | 0.485 | 0.462 | 0.419 | 0.449 | 0.498 | 0.531 | 0.572 | 0.347 |  |  |  |  |  |
| NCI-H1395 | 0.679 | 0.672 | 0.669 | 0.591 | 0.637 | 0.754 | 0.717 | 0.751 | 0.707 | 0.707 | 0.781 | 0.538 | 0.76 | 0.454 |  |  |  |  |  |
| A549 |  |  |  |  |  | 0.225 | 0.271 | 0.36 | 0.308 | 0.266 |  |  |  |  | 0.731 | 0.806 | 0.858 | 0.754 | 0.736 |
| NCI-H1563 | 0.747 | 0.75 | 0.758 | 0.77 | 0.763 |  |  |  |  |  | 0.764 | 0.698 | 0.804 | 0.65 | 0.883 | 0.979 | 0.956 | 0.828 | 0.998 |
